Where two headings read alike, the source gives them in different places.
Target: human GlyT1c transporter (Homo sapiens (Human), UniProt P48067)
Experiment: Radioligand binding assays using recombinant CHO cell membranes expressing human GlyT1
[1] = radioligand binding, human GlyT1c transporter-expressing CHO cell membranes

Sequence of human GlyT1c transporter (P48067 whole entry): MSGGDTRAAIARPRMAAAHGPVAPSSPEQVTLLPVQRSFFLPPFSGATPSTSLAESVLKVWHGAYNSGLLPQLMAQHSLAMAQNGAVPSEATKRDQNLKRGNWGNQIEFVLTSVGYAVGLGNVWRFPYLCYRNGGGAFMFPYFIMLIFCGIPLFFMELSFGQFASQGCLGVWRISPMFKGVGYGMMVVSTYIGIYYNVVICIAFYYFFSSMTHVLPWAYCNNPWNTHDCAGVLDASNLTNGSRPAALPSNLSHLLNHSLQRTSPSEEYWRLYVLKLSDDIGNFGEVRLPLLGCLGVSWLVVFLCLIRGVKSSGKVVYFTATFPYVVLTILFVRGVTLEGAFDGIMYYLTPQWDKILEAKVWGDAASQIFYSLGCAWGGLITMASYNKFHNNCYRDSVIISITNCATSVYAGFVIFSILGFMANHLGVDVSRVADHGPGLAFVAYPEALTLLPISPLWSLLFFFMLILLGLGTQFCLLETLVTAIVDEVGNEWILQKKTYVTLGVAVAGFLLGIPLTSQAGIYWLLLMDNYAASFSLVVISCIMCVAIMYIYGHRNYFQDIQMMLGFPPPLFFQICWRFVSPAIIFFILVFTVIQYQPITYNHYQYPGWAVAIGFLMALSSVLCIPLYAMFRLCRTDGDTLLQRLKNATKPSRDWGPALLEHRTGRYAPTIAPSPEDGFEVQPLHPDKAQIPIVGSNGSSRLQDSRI

SMILES	Ki [1] [nM]	Ki [nM]
Cn1cnc(S(=O)(=O)N2C[C@@H]([C@@H]3CCCOC3)[C@H](Nc3cccc(OCC(F)(F)F)c3)C2)c1 (mixture of isomers) [Example 785, trans-1-[(1-methyl-1H-imidazol-4-yl)sulfonyl]-4-[(3S)-tetrahydro-2H-pyran-3-yl]-N-[3-(2,2,2-trifluoroethoxy)phenyl]pyrrolidin-3-amine]	≤ 100	
Cn1cnc(S(=O)(=O)N2C[C@@H](Nc3cccc(F)n3)[C@H](c3ccc(F)cc3)C2)c1 (relative stereo) [Example 238, 6-fluoro-N-{trans-4-(4-fluorophenyl)-1-[(1-methyl-1H-imidazol-4-yl)sulfonyl]pyrrolidin-3-yl}pyridin-2-amine]		≤ 10000
Cn1cnc(S(=O)(=O)N2C[C@@H](C(=O)c3ccc(F)cc3)[C@H](c3ccc(F)cc3)C2)c1 (relative stereo) [Example 303, (4-fluorophenyl){trans-4-(4-fluorophenyl)-1-[(1-methyl-1H-imidazol-4-yl)sulfonyl]pyrrolidin-3-yl}methasone]	≤ 10000	
Cn1cnc(S(=O)(=O)N2C[C@@H](C(=O)c3ccc(Cl)c(F)c3)[C@H](c3ccc(F)cc3)C2)c1 (relative stereo) [Example 319, (4-Chloro-3-fluorophenyl){trans-4-(4-fluorophenyl)-1-[(1-methyl-1H-imidazol-4-yl)sulfonyl]pyrrolidin-3-yl}methanone]		≤ 100
Cn1cnc(S(=O)(=O)N2C[C@@H](c3ccccc3)[C@](C)(NCc3ccc(Cl)cc3)C2)c1 (relative stereo) [Example 354, Trans-N-(4-chlorobenzyl)-3-methyl-1-[(1-methyl-1H-imidazol-4-yl)sulfonyl]-4-phenylpyrrolidin-3-amine]	≤ 1000	
Cn1cnc(S(=O)(=O)N2C[C@@H](c3ccccc3)[C@](C)(NCc3ccc(C(F)(F)F)cc3)C2)c1 (relative stereo) [Example 355, Trans-3-methyl-1-[(1-methyl-1H-imidazol-4-yl)sulfonyl]-4-phenyl-N-[4-(trifluoromethyl)benzyl]pyrrolidin-3-amine]	≤ 1000	
Cn1cnc(S(=O)(=O)N2C[C@@H](C(=O)c3cc(Cl)cc(Cl)c3)[C@H](c3ccc(F)cc3)C2)c1 (relative stereo) [Example 360, (3,5-Dichlorophenyl) {trans-4-(4-fluorophenyl)-1-[(1-methyl-1H-imidazol-4-yl)sulfonyl]pyrrolidin-3-yl}methanone]		≤ 100
Cn1cnc(S(=O)(=O)N2C[C@@H](NC(=O)c3ccc(C(F)(F)F)cc3)[C@@](O)(c3ccccc3)C2)c1 (relative stereo) [Example 538, N-{Trans-4-hydroxy-1-[(1-methyl-1H-imidazol-4-yl)sulfonyl]-4-phenylpyrrolidin-3-yl}-4-(trifluoromethyl)benzamide]	≤ 10000	
Cn1cnc(S(=O)(=O)N2C[C@@H](Nc3cc(C(F)(F)F)ncn3)[C@H](C3CCCO3)C2)c1 (relative stereo) [Example 853, N-[Trans-1-[(1-methyl-1H-imidazol-4-yl)sulfonyl]-4-(tetrahydrofuran-2-yl)pyrrolidin-3-yl]-6-(trifluoromethyl)pyrimidin-4-amine]		≤ 1000
Cn1cnc(S(=O)(=O)N2CC(c3ccccc3)N(Cc3cccc(Cl)c3)C2=O)c1 (centres unmarked) [Example 343, 3-(3-chlorobenzyl)-1-[(1-methyl-1H-imidazol-4-yl)sulfonyl]-4-phenylimidazolidin-2-one]	≤ 10000	
Cn1cnc(S(=O)(=O)N2C[C@H](Nc3ccc(F)c(Cl)c3)[C@@H](c3ccc(F)cc3)C2)c1 [Example 352, (3R,4S)—N-(3-chloro-4-fluorophenyl)-4-(4-fluorophenyl)-1-[(1-methyl-1H-imidazol-4-yl)sulfonyl]pyrrolidin-3-amine]	≤ 10	
Cn1cnc(S(=O)(=O)N2C[C@H](Nc3cccc(C#N)c3)[C@@H](c3ccc(F)cc3)C2)c1 [Example 380, 3-({(3R,4S)-4-(4-fluorophenyl)-1-[(1-methyl-1H-imidazol-4-yl)sulfonyl]pyrrolidin-3-yl}-amino)benzonitrile]	≤ 100	
Cn1cnc(S(=O)(=O)N2CC(c3ccc(F)cc3)C(O)(Cc3ccccc3)C2)c1 (centres unmarked) [Example 382, 3-benzyl-4-(4-fluorophenyl)-1-[(1-methyl-1H-imidazol-4-yl)sulfonyl]pyrrolidin-3-ol]	≤ 100	
Cn1cnc(S(=O)(=O)N2CC(Nc3nnccc3C(F)(F)F)C(c3ccc(F)cc3)C2)c1 (centres unmarked) [Example 384, N-{4-(4-fluorophenyl)-1-[(1-methyl-1H-imidazol-4-yl)sulfonyl]pyrrolidin-3-yl}-4-(trifluoromethyl)pyridazin-3-amine]	≤ 10000	
Cn1cnc(S(=O)(=O)N2C[C@@H](Nc3cccc(C#N)c3)[C@H](c3ccc(F)cc3)C2)c1 [Example 389, 3-({(3S,4R)-4-(4-fluorophenyl)-1-[(1-methyl-1H-imidazol-4-yl)sulfonyl]pyrrolidin-3-yl}amino)benzonitrile]	≤ 10000	
Cn1cnc(S(=O)(=O)N2C[C@H](NCc3ccc(C(F)(F)F)cc3)[C@@H](c3ccccc3)C2)c1 [Example 398, (3R,4S)-1-[(1-methyl-1H-imidazol-4-yl)sulfonyl]-4-phenyl-N-[4-(trifluoromethyl)benzyl]pyrrolidin-3-amine]	≤ 10	
Cn1cnc(S(=O)(=O)N2C[C@H](Nc3cnc(C4CCC4)cn3)[C@@H](c3ccccc3)C2)c1 [Example 411, 5-cyclobutyl-N-{(3R,4S)-1-[(1-methyl-1H-imidazol-4-yl)sulfonyl]-4-phenylpyrrolidin-3-yl}pyrazin-2-amine]	≤ 10000	
Cn1cnc(S(=O)(=O)N2C[C@H](NC(=O)c3cnc(C(F)(F)F)cn3)[C@@H](c3ccccc3)C2)c1 [Example 414, N-{(3R,4S)-1-[(1-methyl-1H-imidazol-4-yl)sulfonyl]-4-phenylpyrrolidin-3-yl}-5-(trifluoromethyl)pyrazine-2-carboxamide]	≤ 10000	
Cn1cnc(S(=O)(=O)N2C[C@H](Nc3ccc(F)c(Cl)c3)[C@@H](c3ccccc3)C2)c1 [Example 417, (3R,4S)—N-(3-chloro-4-fluorophenyl)-1-[(1-methyl-1H-imidazol-4-yl)sulfonyl]-4-phenylpyrrolidin-3-amine]	≤ 10	
Cn1cnc(S(=O)(=O)N2C[C@H](NC(=O)c3ccc(Cl)nn3)[C@@H](c3ccccc3)C2)c1 [Example 419, 6-chloro-N-{(3R,4S)-1-[(1-methyl-1H-imidazol-4-yl)sulfonyl]-4-phenylpyrrolidin-3-yl}pyridazine-3-carboxamide]	≥ 10000	
Cn1cnc(S(=O)(=O)N2C[C@H](Nc3ccnc(N4CCOCC4)n3)[C@@H](c3ccccc3)C2)c1 [Example 420, N-{(3R,4S)-1-[(1-methyl-1H-imidazol-4-yl)sulfonyl]-4-phenylpyrrolidin-3-yl}-2-(morpholin-4-yl)pyrimidin-4-amine]	≤ 10000	
CCCc1ccc(CN[C@H]2CN(S(=O)(=O)c3cn(C)cn3)C[C@@H]2c2ccccc2)o1 [Example 428, (3R,4S)-1-[(1-methyl-1H-imidazol-4-yl)sulfonyl]-4-phenyl-N-[(5-propylfuran-2-yl)methyl]pyrrolidin-3-amine]	≤ 100	
CC(C)N1CCC(CN[C@H]2CN(S(=O)(=O)c3cn(C)cn3)C[C@@H]2c2ccccc2)CC1 [Example 459, (3R,4S)-1-[(1-methyl-1H-imidazol-4-yl)sulfonyl]-4-phenyl-N-{[1-(propan-2-yl)piperidin-4-yl]methyl}pyrrolidin-3-amine]	≤ 10000	

From US9656955B2, “Pyrrolidine derivatives, pharmaceutical compositions containing them, and their use in therapy” (AbbVie Deutschland GmbH & Co. KG, priority 2013, dated 2017)
